Results: the supplement of paper PMC6045584
± gives the standard deviation of the averaged measurements.

What follows are test systems tested with CC(=O)NCC(=O)N1[C@@H]2CC[C@H]1c1ccc(Nc3ncc(C(F)(F)F)c(NC4CCC4)n3)cc12 (assay: surviving fraction relative to DMSO-only wells; higher = less growth inhibition). Conditions: 10 nM; exposure time: 5 days.
Method in brief: (§1)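 Lines were retained only if, across three screens, replicate Pearson r was >0.7 and median Z' was >0.3. Viability was measured as CellTiter-Glo luminescence and reported as surviving fraction relative to the median of DMSO-only wells. Readings followed 10 minutes at room temperature, after log-phase tumour cells seeded at 250–500 per well in 384-well plates had been exposed, from 24 hours after seeding, continuously for five days to inhibitors at 0.5, 1, 5, 10, 50, 100, 500 and 1000 nM.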
Work on MCF7 BREAST yielded a surviving fraction of 0.826 ± 0.021. PCI30 HEADNECK gave a surviving fraction of 1.04 ± 0.084.

Same assay, conditions: 50 nM; exposure time: 5 days
HCT15 LARGE INTESTINE was tested, and the surviving fraction was 0.394 ± 0.11. HELA CERVIX showed a surviving fraction of 0.697 ± 0.053. Test System KPD BONE has a surviving fraction of 0.903 ± 0.003. MCF7 BREAST gave a surviving fraction of 0.776 ± 0.018. Test System PCI30 HEADNECK has a surviving fraction of 0.964 ± 0.035.

Same assay, conditions: 100 nM; exposure time: 5 days
Work on HCT15 LARGE INTESTINE yielded a surviving fraction of 0.211 ± 0.034. HELA CERVIX showed a surviving fraction of 0.4 ± 0.052. Test System KPD BONE has a surviving fraction of 0.737 ± 0.033. With MCF7 BREAST the surviving fraction was 0.741 ± 0.027. In the case of PCI30 HEADNECK, the surviving fraction is reported as 0.625 ± 0.032.

Same assay, conditions: 500 nM; exposure time: 5 days
For HCT15 LARGE INTESTINE, the surviving fraction was 0.17 ± 0.041. HELA CERVIX was tested, and the surviving fraction was 0.168 ± 0.03. KPD BONE gave a surviving fraction of 0.346 ± 0.009. Test System MCF7 BREAST has a surviving fraction of 0.656 ± 0.035. Test System PCI30 HEADNECK has a surviving fraction of 0.567 ± 0.016.

Same assay, conditions: 1000 nM; exposure time: 5 days
HCT15 LARGE INTESTINE gave a surviving fraction of 0.0853 ± 0.0072. HELA CERVIX was tested, and the surviving fraction was 0.142 ± 0.015. KPD BONE gave a surviving fraction of 0.124 ± 0.0044. MCF7 BREAST showed a surviving fraction of 0.549 ± 0.026. Work on PCI30 HEADNECK yielded a surviving fraction of 0.564 ± 0.0087.

These test systems were tested with CC(=O)c1c(C)c2cnc(Nc3ccc(N4CCNCC4)cn3)nc2n(C2CCCC2)c1=O in the same assay as above. Conditions: 0.5 nM; exposure time: 5 days.
Method in brief: as §1
HCT15 LARGE INTESTINE showed a surviving fraction of 1.09 ± 0.044. HELA CERVIX gave a surviving fraction of 1.03 ± 0.037. Work on KPD BONE yielded a surviving fraction of 0.924 ± 0.081. MCF7 BREAST showed a surviving fraction of 0.965 ± 0.043. With PCI30 HEADNECK the surviving fraction was 1.07 ± 0.085.

Same assay, conditions: 1 nM; exposure time: 5 days
Test System HCT15 LARGE INTESTINE has a surviving fraction of 1.05 ± 0.028. Work on HELA CERVIX yielded a surviving fraction of 0.986 ± 0.016. For KPD BONE, the surviving fraction was 0.939 ± 0.029. For MCF7 BREAST, the surviving fraction was 0.8934 ± 0.0072. For PCI30 HEADNECK, the surviving fraction was 1.04 ± 0.069.

Same assay, conditions: 5 nM; exposure time: 5 days
HCT15 LARGE INTESTINE gave a surviving fraction of 1.06 ± 0.025. In the case of HELA CERVIX, the surviving fraction is reported as 1.01 ± 0.046. KPD BONE showed a surviving fraction of 1.04 ± 0.05. MCF7 BREAST was tested, and the surviving fraction was 0.891 ± 0.03. With PCI30 HEADNECK the surviving fraction was 1.08 ± 0.1.

Same assay, conditions: 10 nM; exposure time: 5 days
With HCT15 LARGE INTESTINE the surviving fraction was 1.03 ± 0.052. Test System HELA CERVIX has a surviving fraction of 0.959 ± 0.04. KPD BONE gave a surviving fraction of 0.961 ± 0.027. MCF7 BREAST gave a surviving fraction of 0.902 ± 0.026. In the case of PCI30 HEADNECK, the surviving fraction is reported as 1.07 ± 0.03.

Same assay, conditions: 50 nM; exposure time: 5 days
HCT15 LARGE INTESTINE showed a surviving fraction of 1.14 ± 0.055. HELA CERVIX showed a surviving fraction of 1.14 ± 0.072. KPD BONE showed a surviving fraction of 0.99 ± 0.069. MCF7 BREAST showed a surviving fraction of 0.956 ± 0.048. For PCI30 HEADNECK, the surviving fraction was 1.09 ± 0.062.

Same assay, conditions: 100 nM; exposure time: 5 days
HCT15 LARGE INTESTINE was tested, and the surviving fraction was 1.1 ± 0.038. In the case of HELA CERVIX, the surviving fraction is reported as 1.15 ± 0.034. With KPD BONE the surviving fraction was 0.993 ± 0.072. MCF7 BREAST was tested, and the surviving fraction was 0.934 ± 0.01. Test System PCI30 HEADNECK has a surviving fraction of 0.931 ± 0.065.

Same assay, conditions: 500 nM; exposure time: 5 days
For HCT15 LARGE INTESTINE, the surviving fraction was 1.12 ± 0.058. With HELA CERVIX the surviving fraction was 1.16 ± 0.021. KPD BONE was tested, and the surviving fraction was 0.775 ± 0.026. Test System MCF7 BREAST has a surviving fraction of 0.925 ± 0.037. With PCI30 HEADNECK the surviving fraction was 0.81 ± 0.06.

Same assay, conditions: 1000 nM; exposure time: 5 days
HCT15 LARGE INTESTINE gave a surviving fraction of 1.11 ± 0.035. HELA CERVIX showed a surviving fraction of 1.04 ± 0.039. KPD BONE was tested, and the surviving fraction was 0.679 ± 0.041. With MCF7 BREAST the surviving fraction was 0.899 ± 0.032. For PCI30 HEADNECK, the surviving fraction was 0.781 ± 0.016.

What follows are test systems tested with O=C(O)C1(C(=O)O)CCC1.[NH2-].[NH2-].[Pt+2] [CARBOPLATIN] in the same assay as above. Conditions: 0.5 nM; exposure time: 5 days.
Method in brief: as §1
HCT15 LARGE INTESTINE was tested, and the surviving fraction was 1.1 ± 0.067. Work on HELA CERVIX yielded a surviving fraction of 1.07 ± 0.02. KPD BONE gave a surviving fraction of 1.02 ± 0.032. Work on MCF7 BREAST yielded a surviving fraction of 0.942 ± 0.053. PCI30 HEADNECK was tested, and the surviving fraction was 1.07 ± 0.036.

Same assay, conditions: 1 nM; exposure time: 5 days
HCT15 LARGE INTESTINE gave a surviving fraction of 1.04 ± 0.056. HELA CERVIX gave a surviving fraction of 1.03 ± 0.042. With KPD BONE the surviving fraction was 1.07 ± 0.065. Test System MCF7 BREAST has a surviving fraction of 0.867 ± 0.048. PCI30 HEADNECK showed a surviving fraction of 1.09 ± 0.04.

Same assay, conditions: 5 nM; exposure time: 5 days
Test System HCT15 LARGE INTESTINE has a surviving fraction of 1.04 ± 0.065. Test System HELA CERVIX has a surviving fraction of 1.03 ± 0.034. KPD BONE showed a surviving fraction of 1.12 ± 0.033. Work on MCF7 BREAST yielded a surviving fraction of 0.995 ± 0.049. With PCI30 HEADNECK the surviving fraction was 1.03 ± 0.021.

Same assay, conditions: 10 nM; exposure time: 5 days
With HCT15 LARGE INTESTINE the surviving fraction was 1.03 ± 0.096. Test System HELA CERVIX has a surviving fraction of 1.01 ± 0.02. KPD BONE gave a surviving fraction of 1.05 ± 0.051. With MCF7 BREAST the surviving fraction was 0.898 ± 0.042. In the case of PCI30 HEADNECK, the surviving fraction is reported as 1.11 ± 0.093.

Same assay, conditions: 50 nM; exposure time: 5 days
For HCT15 LARGE INTESTINE, the surviving fraction was 1.06 ± 0.072. HELA CERVIX showed a surviving fraction of 1.05 ± 0.053. Work on KPD BONE yielded a surviving fraction of 1.09 ± 0.02. MCF7 BREAST showed a surviving fraction of 0.968 ± 0.05. PCI30 HEADNECK showed a surviving fraction of 1.12 ± 0.067.

Same assay, conditions: 100 nM; exposure time: 5 days
HCT15 LARGE INTESTINE gave a surviving fraction of 1.09 ± 0.045. HELA CERVIX was tested, and the surviving fraction was 1.14 ± 0.088. KPD BONE showed a surviving fraction of 1.1 ± 0.05. Test System MCF7 BREAST has a surviving fraction of 0.949 ± 0.068. PCI30 HEADNECK gave a surviving fraction of 1.08 ± 0.03.

Same assay, conditions: 500 nM; exposure time: 5 days
HCT15 LARGE INTESTINE gave a surviving fraction of 1.06 ± 0.036. Work on HELA CERVIX yielded a surviving fraction of 1.15 ± 0.055. With KPD BONE the surviving fraction was 1.04 ± 0.084. MCF7 BREAST was tested, and the surviving fraction was 0.984 ± 0.092. PCI30 HEADNECK showed a surviving fraction of 1.07 ± 0.079.

Same assay, conditions: 1000 nM; exposure time: 5 days
Work on HCT15 LARGE INTESTINE yielded a surviving fraction of 1.08 ± 0.04. HELA CERVIX was tested, and the surviving fraction was 1.09 ± 0.045. KPD BONE showed a surviving fraction of 1.03 ± 0.016. In the case of MCF7 BREAST, the surviving fraction is reported as 0.892 ± 0.018. PCI30 HEADNECK showed a surviving fraction of 1.07 ± 0.039.
